According to PubChem BioAssay AID192 (DTP/NCI, 2004):
Where “and” joins values, the source holds several entries; their conditions need not be identical. Identical values can stand only once. Toxic doses and inconclusive results are not listed. Rule for the calls: active = survival T/C of 150% or more; inactive = T/C below 125% in these data.

Tested on: BDF1 mice, B16 melanoma ip, median survival T/C
Assay: NCI In Vivo Anticancer Drug Screen. Data for tumor model B16 Melanoma (intraperitoneal) in B6D2F1 (BDF1) mice
Conditions: endpoint: median survival time, higher = longer survival
Procedure, shortened: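 Read-out: survival or tumor size, given as treated/control ratio. Controls received vehicle only; animals bore transplantable tumors.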

[1] = dose: 100.0 mg/kg/injection, schedule: Q01DX009 (ip), vehicle: Klucel (hydroxypropylcellulose) (HPC)
[2] = dose: 200.0 mg/kg/injection, schedule: Q01DX009 (ip), vehicle: Klucel (hydroxypropylcellulose) (HPC)
[3] = dose: 400.0 mg/kg/injection, schedule: Q01DX009 (ip), vehicle: Klucel (hydroxypropylcellulose) (HPC)
[4] = dose: 12.5 mg/kg/injection, schedule: Q01DX009 (ip), vehicle: saline with Tween-80
[5] = dose: 25.0 mg/kg/injection, schedule: Q01DX009 (ip), vehicle: saline
[6] = dose: 50.0 mg/kg/injection, schedule: Q01DX009 (ip), vehicle: saline
[7] = dose: 50.0 mg/kg/injection, schedule: Q01DX009 (ip), vehicle: saline with Tween-80
[8] = dose: 100.0 mg/kg/injection, schedule: Q01DX009 (ip), vehicle: saline with Tween-80
[9] = dose: 200.0 mg/kg/injection, schedule: Q01DX009 (ip), vehicle: saline with Tween-80
[10] = dose: 50.0 mg/kg/injection, schedule: Q04DX003 (ip), vehicle: saline with Tween-80
[11] = dose: 100.0 mg/kg/injection, schedule: Q04DX003 (ip), vehicle: saline with Tween-80
[12] = dose: 3.13 mg/kg/injection, schedule: Q01DX009 (ip), vehicle: saline
[13] = dose: 6.25 mg/kg/injection, schedule: Q01DX009 (ip), vehicle: saline

Measured: T/C

CC(=O)NC1CC2c3ccccc3C1([N+](=O)[O-])c1ccccc12 (stereo unspecified)
inactive: [1] 100 % of control | [2] 94 % of control | [3] 91 % of control

O=c1cc(CCl)[nH]nc1CCl
inactive: dose: 1.5 mg/kg/injection, schedule: Q01DX009 (ip), vehicle: saline with Tween-80 107 % of control | dose: 3.0 mg/kg/injection, schedule: Q01DX009 (ip), vehicle: saline with Tween-80 116 % of control | dose: 3.12 mg/kg/injection, schedule: Q01DX009 (ip), vehicle: saline with Tween-80 123 % of control | [4] 124 % of control

COc1ccc(C(=O)/C(Br)=C/C(=O)O)cc1
inactive: dose: 2.5 mg/kg/injection, schedule: Q01DX009 (ip), vehicle: saline 99 % of control | dose: 5.0 mg/kg/injection, schedule: Q01DX009 (ip), vehicle: saline 96 % of control | dose: 10.0 mg/kg/injection, schedule: Q01DX009 (ip), vehicle: saline 95 % of control and 98 % of control | dose: 20.0 mg/kg/injection, schedule: Q01DX009 (ip), vehicle: saline 96 % of control | dose: 40.0 mg/kg/injection, schedule: Q01DX009 (ip), vehicle: saline 95 % of control and 100 % of control

CN1CCC=C(CN(c2ccccc2)c2ccccc2)C1
inactive: [5] 92 % of control | [6] 89 % of control | dose: 100.0 mg/kg/injection, schedule: Q01DX009 (ip), vehicle: saline 92 % of control

COC(=O)C12Oc3ccc(-c4ccc5c(c4O)C(O)=C4C(=O)CC(C)C(O)C4(C(=O)OC)O5)c(O)c3C(O)=C1C(=O)CC(C)C2O (stereo unspecified)
inactive: dose: 0.15 mg/kg/injection, schedule: Q01DX009 (ip), vehicle: saline with Tween-80 98 % of control | dose: 0.31 mg/kg/injection, schedule: Q01DX009 (ip), vehicle: saline with Tween-80 93 % of control | dose: 0.62 mg/kg/injection, schedule: Q01DX009 (ip), vehicle: saline with Tween-80 104 % of control | dose: 1.25 mg/kg/injection, schedule: Q01DX009 (ip), vehicle: saline with Tween-80 95 % of control

O=C(O)CCN1C(=O)c2ccccc2C1=O
inactive: [7] 102 % of control | [8] 95 % of control | [9] 90 % of control

O=C(O)C1C2CCC1C2 (stereo unspecified)
inactive: dose: 25.0 mg/kg/injection, schedule: Q04DX003 (ip), vehicle: saline with Tween-80 103 % of control | [10] 102 % of control | [11] 97 % of control and 102 % of control

CC[C@H]1CN2CCc3cc(OC)c(OC)cc3[C@@H]2C[C@@H]1C[C@H]1NCCc2cc(OC)c(OC)cc21
inactive: dose: 0.87 mg/kg/injection, schedule: Q01DX009 (ip), vehicle: saline 103 % of control and 104 % of control | dose: 1.75 mg/kg/injection, schedule: Q01DX009 (ip), vehicle: saline 100 % of control and 103 % of control | dose: 3.5 mg/kg/injection, schedule: Q01DX009 (ip), vehicle: saline 105 % of control and 111 % of control | dose: 7.0 mg/kg/injection, schedule: Q01DX009 (ip), vehicle: saline 116 % of control | dose: 7.8 mg/kg/injection, schedule: Q04DX003 (ip), vehicle: saline 108 % of control | dose: 11.2 mg/kg/injection, schedule: Q04DX003 (ip), vehicle: saline 98 % of control | dose: 16.0 mg/kg/injection, schedule: Q04DX003 (ip), vehicle: saline 107 % of control | dose: 22.9 mg/kg/injection, schedule: Q04DX003 (ip), vehicle: saline 104 % of control

CCC[CH2][Sn]1([CH2]CCC)[O]C(=O)C[S]1
inactive: dose: 1.0 mg/kg/injection, schedule: Q01DX009 (ip), vehicle: saline with Tween-80 103 % of control | dose: 2.0 mg/kg/injection, schedule: Q01DX009 (ip), vehicle: saline with Tween-80 101 % of control

Cc1cc(=O)n(C)c2ccccc12
inactive: dose: 12.5 mg/kg/injection, schedule: Q01DX009 (ip), vehicle: Klucel (hydroxypropylcellulose) (HPC) 90 % of control | dose: 25.0 mg/kg/injection, schedule: Q01DX009 (ip), vehicle: Klucel (hydroxypropylcellulose) (HPC) 90 % of control | dose: 50.0 mg/kg/injection, schedule: Q01DX009 (ip), vehicle: Klucel (hydroxypropylcellulose) (HPC) 90 % of control | dose: 50.0 mg/kg/injection, schedule: Q04DX003 (ip), vehicle: Klucel (hydroxypropylcellulose) (HPC) 107 % of control | [1] 90 % of control | dose: 100.0 mg/kg/injection, schedule: Q04DX003 (ip), vehicle: Klucel (hydroxypropylcellulose) (HPC) 102 % of control | dose: 200.0 mg/kg/injection, schedule: Q04DX003 (ip), vehicle: Klucel (hydroxypropylcellulose) (HPC) 102 % of control

COC1=C2C[C@@H](C)C[C@@H](OC)[C@@H](O)[C@H](C)/C=C(\C)[C@@H](OC(N)=O)[C@H](OC)/C=C\C=C(/C)C(=O)NC(=CC1=O)C2=O
inactive: dose: 0.5 mg/kg/injection, schedule: Q01DX005 (ip), vehicle: other 110 % of control | dose: 0.5 mg/kg/injection, schedule: Q01DX005 (ip), vehicle: saline with Tween-80 112 % of control | dose: 0.5 mg/kg/injection, schedule: Q01DX005 (ip), vehicle: water 112 % of control and 118 % of control | dose: 0.5 mg/kg/injection, schedule: Q01DX009 (ip), vehicle: saline with Tween-80 110 % of control | dose: 1.0 mg/kg/injection, schedule: Q01DX005 (ip), vehicle: saline with Tween-80 118 % of control | dose: 1.0 mg/kg/injection, schedule: Q01DX005 (ip), vehicle: water 119 % of control | dose: 2.0 mg/kg/injection, schedule: Q01DX005 (ip), vehicle: saline with Tween-80 118 % of control

CCOc1ccc2c(ccc(/C=C\c3cc(C)c4cccnc4c3O)[n+]2C)c1
inactive: dose: 6.25 mg/kg/injection, schedule: Q01DX009 (ip), vehicle: saline with Tween-80 102 % of control | [4] 101 % of control

Cc1ccc(Cl)cc1NC(=O)c1ccccc1Cl
inactive: [1] 108 % of control | [2] 98 % of control

CCCCC1(CC)COC(C)(c2ccccc2)OC1 (stereo unspecified)
inactive: dose: 75.0 mg/kg/injection, schedule: Q01DX009 (ip), vehicle: saline with Tween-80 108 % of control | dose: 150.0 mg/kg/injection, schedule: Q01DX009 (ip), vehicle: saline with Tween-80 106 % of control | dose: 300.0 mg/kg/injection, schedule: Q01DX009 (ip), vehicle: saline with Tween-80 98 % of control

CN(N=O)C(N)=O
inactive: [12] 114 % of control | [13] 116 % of control

CCCCCCCC(=O)CC(C)C
inactive: [1] 106 % of control | [2] 86 % of control

CCOc1ccccc1NC(=O)Nc1cccc2ccccc12
inactive: [1] 103 % of control | [2] 100 % of control | [3] 103 % of control

CN(C)C(=O)c1cccc(COc2ccc(N3C(N)=NC(N)=NC3(C)C)cc2Cl)c1
inactive: dose: 1.56 mg/kg/injection, schedule: Q01DX009 (ip), vehicle: saline 120 % of control | [12] 120 % of control | [13] 117 % of control | dose: 12.5 mg/kg/injection, schedule: Q01DX009 (ip), vehicle: saline 104 % of control and 105 % of control | [5] 104 % of control and 117 % of control | [6] 100 % of control

Cc1cc(NCCCCCCNc2cc(C)nc3ccc(N)cc23)c2cc(N)ccc2n1
inactive: dose: 2.25 mg/kg/injection, schedule: Q01DX009 (ip), vehicle: saline with Tween-80 104 % of control | dose: 4.5 mg/kg/injection, schedule: Q01DX009 (ip), vehicle: saline with Tween-80 102 % of control | dose: 9.0 mg/kg/injection, schedule: Q01DX009 (ip), vehicle: saline with Tween-80 104 % of control | dose: 18.0 mg/kg/injection, schedule: Q01DX009 (ip), vehicle: saline with Tween-80 122 % of control

O=C1C=C(SCCO)C(=O)c2ccccc21
inactive: dose: 13.0 micrograms/kg/injection, schedule: Q01DX009 (ip), vehicle: saline with Tween-80 100 % of control | dose: 18.7 micrograms/kg/injection, schedule: Q01DX009 (ip), vehicle: saline with Tween-80 94 % of control | dose: 20.0 micrograms/kg/injection, schedule: Q01DX009 (ip), vehicle: saline with Tween-80 92 % of control | dose: 30.0 micrograms/kg/injection, schedule: Q01DX009 (ip), vehicle: saline with Tween-80 95 % of control | dose: 45.0 micrograms/kg/injection, schedule: Q01DX009 (ip), vehicle: saline with Tween-80 117 % of control | dose: 90.0 micrograms/kg/injection, schedule: Q01DX009 (ip), vehicle: saline with Tween-80 107 % of control

CCN(CC)CCNc1ccc([N+](=O)[O-])cc1[N+](=O)[O-]
inactive: dose: 25.0 mg/kg/injection, schedule: Q01DX009 (ip), vehicle: saline with Tween-80 100 % of control | [7] 113 % of control | [10] 102 % of control | [8] 100 % of control | [11] 100 % of control

O=C(Nc1ccccc1C(F)(F)F)c1ccc(Cl)cc1Cl
inactive: [8] 97 % of control | [9] 92 % of control
